# According to patent US20080207710A1, “Insulin Secretagogue Drugs” (TOUDAI TLO, LTD., priority 2004, published 2008):
# What was measured:
# [1] = tested on: obese animals; settings: cited from earlier work
# [2] = tested on: pancreatic β cells (islets of Langerhans); test: Glucose-stimulated insulin secretion from isolated islets of Langerhans; type: cell-based, mouse; settings: for insulin secretion on stimulation with glucose: 24 hr with 10 or 100 nM GW501516, 16.7 mM glucose, 1 hr
# Description: Animals, 6-week-old male C57BL/6J and Lepr^db/Lepr^db mice, were purchased from Clea Japan, Inc., and kept under the following conditions: room temperature, 25° C.; humidity, 60±10%; and 12 hr light/dark cycles (light period, 08:00 to 20:00). All animals were tamed for one week and then subjected to tests. The animals were given free access to food (commercial lab chow, pellet form CE-2, Clea Japan, Inc.) and water. Male C57BL/6J and Lepr^db/Lepr^db mice were used. After clamping the common bile duct at a point close to the duodenum outlet under Nembutal anesthetization, 1 mg/mL collagenase (Wako Pure Chemical Industries, Ltd., Japan) was injected into the common bile duct at a liver side. The pancreas was taken out and incubated at 37° C. for 13 min. Thereafter, Hank's balanced salt solution was added, the pancreas tissue suspension was shaken and then centrifuged to remove supernatants. The pancreas tissue was resuspended in Hank's balanced salt solution, and then subjected to filtration followed by addition of Hank's balanced salt solution to make the tissue suspension volume 35 mL. The resultant tissue suspension was mixed and then allowed to stand for 5 min. Supernatants were removed with an aspirator except that 5 mL of the solution was retained, and the remaining solution was remixed with Hank's balanced salt solution to make the tissue suspension volume 35 mL. […] After incubation in a Krebs-Ringer bicarbonate buffer (KRBB, 119 mM NaCl, 4.74 mM KCl, 2.54 mM CaCl2, 1.19 mM MgCl2, 1.19 mM KH2PO4, 25 mM NaHCO3, and 10 mM HEPES, pH 7.4) containing 2.8 mM glucose at 37° C. for 1 hr, the islets of Langerhans were dispensed in a 24-well plate at 10 islets per well, and incubated in KRBB containing 2.8, 5.6 or 16.7 mM glucose, respectively, at 37° C. for 1 hr. Each supernatant sample collected was assayed for insulin with rat insulin [^125I] Biotrak Assay System (Amersham).
structure (smiles),measurement,setting,value
"Cc1cc(SCc2sc(-c3ccc(C(F)(F)F)cc3)nc2C)ccc1OCC(=O)O [GW501516, 2-{2-methyl-4-[({4-methyl-2-[4-(trifluoromethyl)phenyl]-1,3-thiazol-5-yl}methyl)thio]phenoxy}acetic acid]",effect on diabetes (plasma glucose and blood insulin levels),[1]; genetically obese animals,improve diabetes as revealed by the decrease in plasma glucose and blood insulin levels
same,effect on obesity and insulin resistance,[1]; obese animals induced by high-fat dieting,ameliorate obesity and insulin resistance
same,dose dependence of insulin secretion when stimulated with elevated glucose levels,"[2]; 10 or 100 nM GW501516, elevated glucose levels",increased dose-dependently insulin secretion
same,insulin secretion on stimulation with glucose,[2]; islets from C57BL/6J mice,significant insulin secretion
same,insulin secretion on stimulation with glucose,[2]; islets from Lepr^db/Lepr^db mice,significant insulin secretion
